Reference: US7335757B2, “Carbonyl reductase, gene encoding the same, and process for producing optically active alcohols using the same” (Mitsubishi Chemical Corporation, priority 2002, dated 2008)

tested on: carbonyl reductase; test: Reduction activity of the enzyme on various ketones and aldehyde (initial rate of NADPH decrease); type: biochemical, Ogataea minuta var. nonfermentans IFO 1473; conditions: pH 7

Molecule	Specific activity (%)
O=C(c1ccccc1)C(F)(F)F [2,2,2-Trifluoro-acetophenone]	100.0%
O=C(CCl)c1ccccc1 [2-Chloro-acetophenone]	19.6%
O=C1CCCCC1Cl (centres unmarked) [2-Chloro-cyclohexanone]	163.0%
N#CCCc1ccccc1 [Benzylacetonitrile]	25.9%
CC(=O)C(C)=O [Diacetyl]	12.3%
CCC(=O)c1ccccc1 [Propiophenone]	18.8%
CC(=O)c1cccc(Cl)c1 [m-Chloro-acetophenone]	30.7%
CC(=O)c1ccc(Cl)cc1 [p-Chloro-acetophenone]	10.2%

same assay, conditions: relative to 2,2,2-trifluoroacetophenone defined as 100; NADPH, 0.1 M phosphate buffer pH 7.0

Molecule	Specific activity (%)
CC1(Cl)CCCCC1=O (centres unmarked) [2-Chloro-2-Methyl-cyclohexanone]	105.4%
CCOC(=O)CC(=O)c1ccccc1 [Ethyl benzoylacetate]	10.9%
CCOC(=O)C(=O)C(C)C [Ethyl-3-methyl-2-oxobutanoate]	72.1%
CC(=O)c1cccc(Br)c1 [m-Bromo-acetophenone]	21.3%
O=Cc1cccc(Cl)c1 [m-Chlorobenzaldehyde]	14.3%
O=Cc1cccc([N+](=O)[O-])c1 [m-Nitrobenzaldehyde]	45.6%
O=Cc1ccccc1Cl [o-Chlorobenzaldehyde]	81.2%
O=Cc1ccccc1[N+](=O)[O-] [o-Nitrobenzaldehyde]	52.6%
O=Cc1ccc(Cl)cc1 [p-Chlorobenzaldehyde]	15.2%
CC1(C)COC(=O)C1=O [α-Keto-pantolactone]	26.3%

tested on: carbonyl reductase; test: 2,2,2-trifluoroacetophenone reducing activity after treating the enzyme with various reagents; type: biochemical, Ogataea minuta var. nonfermentans IFO 1473; conditions: enzyme treated at 30° C. for 10 minutes
Procedure: Further, the enzyme was treated in various reagents at 30° C. for 10 minutes and then 2,2,2-trifluoroacetophenone reducing activity was measured.

Molecule	activity of enzyme in the presence of reagent
[Cl][Pb][Cl] [lead chloride]	considerably inhibited
O=[N+]([O-])[O-].[Hg+] [mercury nitrate]	considerably inhibited

tested on: carbonyl reductase; test: Temperature stability of the enzyme (residual 2,2,2-trifluoroacetophenone reducing activity); type: biochemical, Ogataea minuta var. nonfermentans IFO 1473; conditions: 50° C. or more, 10 minutes, 20 mM phosphate buffer pH 7.0

Molecule	residual activity
carbonyl reductase: Carbonyl reductase purified from Ogataea minuta var. nonfermentans IFO 1473, amino acid sequence SEQ ID NO: 1, about 27,000 Da by SDS-PAGE (protein, Ogataea minuta var nonfermentans) MAKTVYFIAGASRGIGLEVASQLSANPDNYVIASYRSEKSASGLLELAKKDNVDTIVLDIASQESIDAVPAQISKLTDGIDVALINAGIANAMCPILECSRESYTDHWTTNALGPIMLYQAIHKFMLQRETRKVFFTTSAGGSIQAKIPVPVSGYGMSKAALNYAVRKLADECYKDNFTIVLLHPGFVKTDMGQSAIQKMSNGNAELLAYIDSMTIDVPTSAGQIVGAIMTLDKQSSGRFINAADQFDMPF	rapidly deactivated

same assay, conditions: 70° C., 10 minutes, 20 mM phosphate buffer pH 7.0

Molecule	residual activity
carbonyl reductase: Carbonyl reductase purified from Ogataea minuta var. nonfermentans IFO 1473, amino acid sequence SEQ ID NO: 1, about 27,000 Da by SDS-PAGE (protein, Ogataea minuta var nonfermentans) MAKTVYFIAGASRGIGLEVASQLSANPDNYVIASYRSEKSASGLLELAKKDNVDTIVLDIASQESIDAVPAQISKLTDGIDVALINAGIANAMCPILECSRESYTDHWTTNALGPIMLYQAIHKFMLQRETRKVFFTTSAGGSIQAKIPVPVSGYGMSKAALNYAVRKLADECYKDNFTIVLLHPGFVKTDMGQSAIQKMSNGNAELLAYIDSMTIDVPTSAGQIVGAIMTLDKQSSGRFINAADQFDMPF	lost the activity completely

same assay, conditions: up to 40° C., 10 minutes, 20 mM phosphate buffer pH 7.0

Molecule	residual activity
carbonyl reductase: Carbonyl reductase purified from Ogataea minuta var. nonfermentans IFO 1473, amino acid sequence SEQ ID NO: 1, about 27,000 Da by SDS-PAGE (protein, Ogataea minuta var nonfermentans) MAKTVYFIAGASRGIGLEVASQLSANPDNYVIASYRSEKSASGLLELAKKDNVDTIVLDIASQESIDAVPAQISKLTDGIDVALINAGIANAMCPILECSRESYTDHWTTNALGPIMLYQAIHKFMLQRETRKVFFTTSAGGSIQAKIPVPVSGYGMSKAALNYAVRKLADECYKDNFTIVLLHPGFVKTDMGQSAIQKMSNGNAELLAYIDSMTIDVPTSAGQIVGAIMTLDKQSSGRFINAADQFDMPF	≥ 79%
